Data as given in a melting point compilation (Tetko et al.; mined from patent text by program, amines drawn as free bases though some values may be those of a salt).

melting point [°C] | Structure (SMILES)
120 to 121 | CCOC(=O)c1cn(Cc2ccccc2)nc1OCc1ccc(OCc2nc(-c3ccco3)oc2C)c(OCOC)c1
130 to 132 | CCCCCCCCCCOc1ccc(C(=O)O)cc1C(C)(C)C
177 to 178 | COc1nc(NC(=O)NS(=O)(=O)c2ccccc2CCC(F)(F)F)nc(OC)n1
75 | Cc1nc2c(OCc3c(Cl)ccc(S(=O)(=O)N4CCC[C@H]4C(=O)NCCCN)c3Cl)cccn2c1Br
66 to 69 | CCCCCCCCCCCCCCCC(=O)C1C(=O)CC(C#N)CC1=O (stereo not given)
228 | CCCc1nc2c(N)nc3cc(OCc4ccccc4C)ccc3c2n1CC(C)C
122 to 124 | O=C(O)c1cn(-c2cccnc2)c2c(F)c(F)c(F)cc2c1=O
101 to 102 | CCOC(=O)c1cn(Cc2ccccc2)nc1OCc1ccc(OCc2nc(-c3ccco3)oc2C)cc1
105 to 106 | COC(=O)c1cc(I)ccc1N(C)S(C)(=O)=O
52 to 59 | CC(C)C[C@H](NC(=O)OCc1ccccn1)C(=O)N[C@@H](C(C)C)[C@H](O)c1c(-c2ccccc2)c1=O
190 | COC(=O)c1ccc(OC(=O)CCC(=O)Oc2ccc(C(=O)OC)cc2)cc1
37.1 to 37.3 | CCOC(=O)/C=C/c1ccc(OCCOC)cc1OS(=O)(=O)C(F)(F)F
90 to 93 | CCCc1c(OCc2ccccc2C(=O)OC)ccc(C(C)=O)c1O
148 to 149 | COc1cccc(CC(=O)O)c1OCCCc1cn(-c2ccc(C(C)=O)cn2)nc1C(C)C
144 to 145 | Cc1nc2ccc(CBr)cc2c(=O)n1COC(=O)C(C)(C)C
170 to 174 | COC(=O)c1cc(O)n2nc(C)nc2n1
225 to 226 | CCCn1c(N)c(N=O)c(=O)n(CC2CCCCC2)c1=O

melting point [°C] | Structure (SMILES)
> 260 | COc1cc(OC)c(-c2nccs2)cc1/C=C/C(=O)c1ccc(C(=O)O)cc1
65 to 67 | CCOC(=O)[C@H](CNC(=O)OC(C)(C)C)NS(=O)(=O)N(C)C
150 to 151 | CCOCCOc1ccc(-c2ccc3c(c2)C=C(C(=O)Nc2ccc(CN(C)C4CCOCC4)cc2)CCS3(=O)=O)cc1OCCOCC
187 to 189 | COc1ccc(CNC(=O)c2c(C)c([N+](=O)[O-])cc3nc(OC)c(OC)nc23)cc1
169 to 172 | N#Cc1ccc(NC(=O)CCc2ccc(O)cc2)cc1
235 to 237 | COC(=O)C(NC(C)=O)NC(=O)c1cc(Cl)cc(Cl)c1 (stereo not given)
112 to 116 | CN1CC(CCCN2CCN(c3ccccc3O)CC2)OC1=O (stereo not given)
113 to 115 | CC(Cc1ccc(CCNS(=O)(=O)c2ccccc2)cc1)C(=O)O (stereo not given)
175 to 176 | COc1ccc(CCC(=O)O)cc1C(=O)NCc1cccnc1
43 to 45 | COC(=O)c1ccc(CCCOCCCCCCNCC(O)c2ccc(O)c(CO)c2)cc1 (stereo not given)
129 to 130 | NC(=O)c1ccc(CCCNCC(O)COc2ccccc2)s1 (racemic)
75 to 80 | CNC(=O)N1CCc2cc(OC)c(OC)c(O)c2C1Cc1cccc(OC)c1 (stereo not given)
87 to 88 | CCCCCC(=O)c1c(O)oc(=O)c(C(=O)CCCCC)c1O
105 | COc1cc(CCCN(C)Cc2ccc(OC)c(OC)c2)ccc1NC(=O)c1cccc2c(=O)c3cccc(OC)c3[nH]c12
66 to 67 | CCCc1cc2c(cc1CC#N)OCO2
122 | COCCOc1ccc(CCCOC(=O)NS(=O)(=O)NC2CCC(C)CC2)c(Oc2ncc(C(F)(F)F)cc2Cl)c1 (stereo not given)

The next lines start with the compound.

Structure (SMILES) | melting point [°C]
COc1cc(Nc2c(C#N)cnc3cc(/C=C/C(=O)O)ccc23)c(Cl)cc1Cl | 237 to 240
O=Cc1cc(O)ccc1-c1cccc(C(F)(F)F)c1 | 100 to 102
CN1CCC(c2nn(-c3ccccc3C#N)c3ccccc23)CC1 | 117 to 119
COC1(c2cnc(Sc3ccc(/C(C)=N/O)cc3)s2)CCOCC1 | 114 to 116
CC=Nc1cc(CO)cc(Nc2c3ccccc3nc3ccccc23)c1 | 158 to 161
CCOC(=O)c1ccc(-n2cncn2)cc1 | 97 to 99
O=c1c2ccc(Cl)cc2[nH]c2c(O)nn(CCN3CCN(c4ccccc4)CC3)c(=O)c12 | 361 to 364
COc1ccc(-c2n[nH]c3c2sc2ccccc23)cc1 | 185 to 187
COC(=O)c1ccc(-n2cccc2)cc1 | 128 to 129
CN1CCC(OC(c2cccc(SCCNC(=N)NC#N)c2)c2nc3ccccc3[nH]2)CC1 (stereo not given) | 65
CC(Cc1c[nH]c2ccccc12)NC(=O)C=C1CCC(c2ccccc2)(N(C)C)CC1 (stereo not given) | 184 to 187
COc1cc(OC)nc(-n2nc(SC)n(N)c2=O)n1 | 198
COC(=O)[C@@H]1C[C@H]1C(=O)O (relative stereo) | 46 to 47
Cc1cnc2[nH]cc(/C=C3\N=C(N(C)CC(C)C)NC3=O)c2c1 | 287 to 289
N#CN1CCN2c3ccccc3Cc3ccccc3C2C1 (stereo not given) | 164 to 166
Cc1cc(C)cc(NCc2ccc3nc(NC4CCNC(CCN5CCOCC5)C4)n(Cc4nc(C)ccc4O)c3c2)c1 (stereo not given) | 150
C1=CNC(C(c2ccccc2)c2ccccc2)=C(NCc2ccccc2)C=C1 | 186 to 187
CN(C)C(=S)C(O)c1ccc(OCc2ccccc2)cc1 (stereo not given) | 104 to 107
O=C1CCN(c2cc(Cl)cc3cccnc23)CC1 | 223 to 225
Cc1nc(Cl)c2c(C)c(C)n(-c3c(Br)cc(C(F)(F)F)cc3Br)c2n1 | 202 to 204
Fc1cc(F)c(-c2c(Cl)nc3nccn3c2N2CCCCCC2)c(F)c1 | 106 to 108
COc1nc(C)n2nc(S(=O)(=O)Cl)nc2c1Cl | 100 to 101
N#CCC(C#N)NNc1ccccc1 (stereo not given) | 97 to 98

Structure (SMILES) | melting point [°C]
N#Cc1cnn2c1NCCC2 | 206 to 207
CCOCc1nc2c(N)nc3cc(Br)ccc3c2n1CC1CCN(S(C)(=O)=O)CC1 | 233 to 234
Cc1ccc(Cn2c(=O)c(-c3ccccc3)c3n(c2=O)CC=CS3)cc1 | 124 to 125
CC(=O)NCc1ccc(Nc2nccc(-c3sc(-c4cccnc4)nc3C)n2)cc1 | 199 to 201
O=C(OCC(F)(F)C(F)C(F)(F)F)C(F)CF (stereo not given) | 84 to 86
CC1(c2ccc3noc(-c4ccccc4)c3c2)OCCO1 | 69 to 71
Cc1csc(-c2cccnc2)n1 | 42 to 43
COc1ccccc1C(=O)c1cccc(NC(=O)c2ccn3c2CSC3c2cccnc2)c1 (stereo not given) | 184
CS(=O)c1c(C#N)nn(-c2ccc(C(F)(F)F)cc2Cl)c1N (stereo not given) | 146 to 147
O=C1Nc2ccccc2C12COc1cc3nccnc3cc12 (stereo not given) | 206 to 207
O=C(c1ccc(-c2ccccc2)cc1)N1Cc2ccccc2Oc2ccccc21 | 93 to 95
COc1ccc(COc2c(C)c(C)c3c(c2C)C(c2ccc(N4CCN(C)CC4)cc2)C(C)(C)O3)cc1 (stereo not given) | 121 to 122
CONC(=O)c1cc(-c2ccc(-c3ccco3)cc2)n(-c2ccc(S(C)(=O)=O)c(F)c2)n1 | 126 to 128
Cn1ncc(C23CCCN(CC2)C3)n1 (stereo not given) | 65 to 70
COc1c(F)ccc2ccc(Cl)nc12 | 85 to 86
Cc1nc(NC(=O)c2cnn3c(C(F)(F)F)cc(-c4ccc(C(F)(F)F)cc4)nc23)sc1S(=O)(=O)NC(C)(C)CO | 257
CC(C)(C)OC(=O)N1CCN(C(=O)c2ccc3n2Cc2ccccc2N(C(=O)C2=CC=C(c4ccccc4)C(C)(C(F)(F)F)C2)C3)CC1 (stereo not given) | 104 to 121
CC(C)(C)OC(=O)[C@@H]1CCCN2C(=O)CC[C@H](NC(=O)c3ccccc3)C(=O)N12 | 74 to 76
CC(=C1SC(=O)NC1=O)c1ccc(OCCOc2c(-c3ccc(F)cc3)n(C)c3ccccc3c2=O)cc1 | 228 to 230
CC(C(=O)O)c1ccc2nc(N)[nH]c2c1 (stereo not given) | 300
COc1ccc(-c2cc(-c3ccccc3)c(-c3ccccc3)s2)cc1 | 124 to 126
CCC(=NNC(=O)C1CC1C)c1cccnc1 (stereo not given) | 137
CN(C(=O)CCl)C1(c2ccccc2)Cc2ccccc2C1 | 134 to 137

Structure (SMILES) | melting point [°C]
CCCCCCC1C(=O)OC2OC3(C)CCC4C(C)CCC1C24OO3 (single isomer, unassigned; (+)) | 80.5 to 82
CC1(c2ccccc2)OCC(OCc2ccccc2)CO1 (stereo not given) | 87 to 88
Cc1ccc(OCCCl)c(C(N)=O)c1 | 111 to 113
Cc1ccc2c(n1)CC(c1ccccc1)CC2=O (stereo not given) | 79 to 81
C=Cn1nc(-c2c(-c3ccccc3)nn3ccccc23)ccc1=O | 188
CC(=O)OC1N=C(c2ccccc2)c2cc(Cl)ccc2-c2c1nc(C)[nH]c2=O (stereo not given) | > 320
COc1ccc2c(Cl)c(C(=O)Cl)sc2c1Cl | 174 to 175
Nc1cc(CO)cc(S(N)(=O)=O)c1Cc1ccccc1 | 159 to 161
COc1ccc(N2CCN(c3ccc(NC4=NCC(OC)S4)cc3)CC2)cc1 (stereo not given) | 178
COc1ccc(-n2ncc3c2-c2ccccc2C3)cc1 | 102 to 103
COc1ccccc1N1CCN(CCCCOc2ccc(-c3cn4ccccc4n3)cc2)CC1 | 144 to 145
COc1ccc(CC(C)NC(O)Cc2cc3ccccc3o2)cc1 (stereo not given) | 75 to 85
CN1Cc2c(c3cc(CCCN4CCN(c5nsc6ccccc56)CC4)ccc3[nH]c2=O)C1 | 206 to 208
N#Cc1ccc2c3c(cc([N+](=O)[O-])c2c1)NCC3CCl (stereo not given) | 237 to 238
O=[N+]([O-])C(CO)(CO)CCc1ccc(Sc2cccc(OCc3ccccc3)c2)cc1Cl | 69 to 70
C=CCNC(=O)c1ccc(-c2ccc3nnn(Cc4ccc5ncccc5c4)c3n2)cc1F | 162 to 164
O=C(O)c1[nH]c2cc(Cl)cc(Cl)c2c1C=C1CCNN(c2ccccc2)C1=O | > 250
C=CCOc1ccc(OCCBr)cc1 | 27 to 28
CC(Oc1ncn(-c2cccc(Br)c2)n1)C(=O)O (stereo not given) | 198 to 200
CC(C)(c1ccc(C(O)(C(F)(F)F)C(F)(F)F)cc1)S(=O)(=O)c1ccccc1 | 185
CC1=NNC(=O)N(N=Cc2cccnc2C)C1 | 226 to 229
